As a reminder, the Kd is the constant that tells how readily two partners part at equilibrium. Low readings indicate tighter binding, high ones weaker binding. As usually defined, the IC50 is the concentration needed to halve the response being measured. Higher therefore signals a need for much substance.

SMILES strings stand for the structures. Structures can show the parent of a compound that is named as a salt.

The target in assay [1] is T1, proMMP13(1-268) (SEQ ID NO:7) (Homo sapiens, UniProt P45452).
T1 construct: 6xHis (C); made in house; host or cells: HEK293 (transient, secreted)
In words: ThermoFluor binding assay with proMMP13(1-268). How it is done: The ThermoFluor® (TF) assay is a 384-well plate-based binding assay that measures thermal stability of proteins (Biomol Screen 2001, 6, 429-40; Biochemistry 2005, 44, 5258-66). The experiments were carried out using instruments available from Johnson & Johnson Pharmaceutical Research & Development, LLC. TF dye used in all experiments was […] (1,8-ANS) (Invitrogen: A-47).
Compounds were arranged in a pre-dispensed plate (Greiner Bio-one: 781280), wherein compounds were serially diluted in 100% DMSO across 11 columns within a series. Columns 12 and 24 were used as DMSO reference and contained no compound. For multiple compound concentration-response experiments, the compound aliquots (50 nL) were robotically predispensed directly into black 384-well polypropylene PCR microplates (Abgene: TF-0384/k) using a Cartesian Hummingbird liquid handler (DigiLab, Holliston, Mass.). Following compound dispense, protein and dye solutions were added to achieve the final assay volume of 3 μL. The assay solutions were overlayed with 1 μL of silicone oil (Fluka, type DC 200: 85411) to prevent evaporation.
Assay plates were robotically loaded onto a thermostatically controlled PCR-type thermal block and then heated from 40 to 90° C. at a ramp-rate of 1° C./min for all experiments. Fluorescence was measured by continuous illumination with UV light (Hamamatsu LC6) supplied via fiber optics and filtered through a band-pass filter (380-400 nm; >60D cutoff). Fluorescence emission of the entire 384-well plate was detected by measuring light intensity using a CCD camera (Sensys, Roper Scientific) filtered to detect 500±25 nm, resulting in simultaneous and independent readings of all 384 wells. A single image with 20-sec exposure time was collected at each temperature, and the sum of the pixel intensity in a given area of the assay plate was recorded vs temperature and fit to standard equations to yield the Tm (J Biomol Screen 2001, 6, 429-40).
Thermodynamic parameters necessary for fitting compound binding for each proMMP were estimated by differential scanning calorimetry (DSC) and from ThermoFluor® data. The heat capacity of unfolding for each protein was estimated from the molecular weight and from ThermoFluor® dosing data.
ThermoFluor® with proMMP13(1-268) (SEQ ID NO: 7)
The proMMP13(1-268) (SEQ ID NO:7) protein sample preparations included a desalting buffer exchange step via a PD-10 gravity column (GE Healthcare). The desalting buffer exchange was performed prior to diluting the protein to the final assay concentration of 3.5 μM. The concentration of proMMP13(1-268) (SEQ ID NO:7) was estimated spectrophotometrically based on a calculated extinction coefficient of ε280=37000 M^−1 cm^−1, a calculated molecular weight of 30.8 kDa, and calculated pI of 5.33. ThermoFluor® reference conditions were defined as follows: 100 μg/mL proMMP13(1-268) (SEQ ID NO:7), 25 μM 1,8-ANS, pH 7.0 Buffer (50 mM HEPES pH 7.0, 100 mM NaCl, 0.001% Tween-20, 2.5 mM MgCl2, 300 μM CaCl2). The thermodynamic parameters for proMMP13(1-268) (SEQ ID NO:7) are as follows: Tm (° C.)=67 (+/−0.1), ΔUH(Tm)) (cal mol^−1)=107000(+/−5000), ΔUSTm (cal mol^−1 K^−1)=318, ΔUCp (cal mol^−1 K^−1)=2600.

Assay [2] addresses T2, proMMP9(67-444;ΔFnII) (SEQ ID NO:5) (Homo sapiens, UniProt P14780, DEL216-390).
T2 construct: start methionine (N); made in house; host or cells: E. coli BL21(DE3) RIL
T2 sequence (P14780 with tags, fused parts or gaps DEL216-390): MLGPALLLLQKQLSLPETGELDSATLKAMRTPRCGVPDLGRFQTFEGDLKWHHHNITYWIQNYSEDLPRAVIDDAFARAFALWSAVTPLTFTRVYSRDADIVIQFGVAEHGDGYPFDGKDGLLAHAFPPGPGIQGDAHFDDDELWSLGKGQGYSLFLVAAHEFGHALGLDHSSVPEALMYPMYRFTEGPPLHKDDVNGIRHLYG
In words: ThermoFluor binding assay with proMMP9(67-444;ΔFnII). An outline of the steps: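 Thermal shift of 3.5 μM proMMP9(67-444;ΔFnII), desalted beforehand, with 50 μM 1,8-ANS in 50 mM HEPES pH 7.0, 100 mM NaCl, 2.5 mM MgCl2, 300 μM CaCl2, 0.001% Tween-20. Heated 40–90 °C at 1 °C/min, fluorescence read at 500 nm; binding fitted from Tm shifts using DSC- and ThermoFluor-derived unfolding parameters.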
(In general: DSF heats the sample and reads unfolding from a dye or from intrinsic fluorescence.)

Assay [3] addresses T3, full-length proMMP9(1-707) activation by catalytic MMP3 (Homo sapiens, UniProt P14780, R574P).
T3 construct: made in house; host or cells: proMMP9: HEK293 (secreted); MMP3: E. coli
In words: proMMP9/MMP3 P126 Activation Assay. In kind it is biochemical. Here is the method: proMMP9/MMP3 P126 Activation Assay
The reaction volume was 50 μL. […] Reactivity of residual MMP3 towards P-126 substrate was minimal under these conditions.

Assay [4] deals with T4, proMMP9(20-445;ΔFnII) (SEQ ID NO:6) (Homo sapiens, UniProt P14780, DEL216-390).
T4 construct: start methionine (N); made in house; host or cells: E. coli BL21(DE3) RIL
T4 sequence (P14780 with tags, fused parts or gaps DEL216-390): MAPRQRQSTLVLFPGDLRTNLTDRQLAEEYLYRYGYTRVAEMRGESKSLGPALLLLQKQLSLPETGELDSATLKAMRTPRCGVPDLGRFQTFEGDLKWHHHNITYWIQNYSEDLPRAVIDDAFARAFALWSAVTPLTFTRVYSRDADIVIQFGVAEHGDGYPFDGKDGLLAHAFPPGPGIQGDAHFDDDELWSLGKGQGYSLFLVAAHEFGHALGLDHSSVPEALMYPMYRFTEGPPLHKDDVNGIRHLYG
In words: ThermoFluor binding assay with proMMP9(20-445;ΔFnII). An outline of the steps:
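Protein thermal stability was measured with 2.8 μM proMMP9(20-445;ΔFnII) and 50 μM 1,8-ANS in 50 mM HEPES pH 7.0, 100 mM NaCl, 0.001% Tween-20, 2.5 mM MgCl2, 300 μM CaCl2, across serial compound dilutions. Samples were heated 40–90° C at 1° C/min with fluorescence read at 500 nm. Tm was fitted, and binding was derived from thermodynamic parameters obtained by DSC and ThermoFluor.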

T3 sequence (P14780 20-707 R574P): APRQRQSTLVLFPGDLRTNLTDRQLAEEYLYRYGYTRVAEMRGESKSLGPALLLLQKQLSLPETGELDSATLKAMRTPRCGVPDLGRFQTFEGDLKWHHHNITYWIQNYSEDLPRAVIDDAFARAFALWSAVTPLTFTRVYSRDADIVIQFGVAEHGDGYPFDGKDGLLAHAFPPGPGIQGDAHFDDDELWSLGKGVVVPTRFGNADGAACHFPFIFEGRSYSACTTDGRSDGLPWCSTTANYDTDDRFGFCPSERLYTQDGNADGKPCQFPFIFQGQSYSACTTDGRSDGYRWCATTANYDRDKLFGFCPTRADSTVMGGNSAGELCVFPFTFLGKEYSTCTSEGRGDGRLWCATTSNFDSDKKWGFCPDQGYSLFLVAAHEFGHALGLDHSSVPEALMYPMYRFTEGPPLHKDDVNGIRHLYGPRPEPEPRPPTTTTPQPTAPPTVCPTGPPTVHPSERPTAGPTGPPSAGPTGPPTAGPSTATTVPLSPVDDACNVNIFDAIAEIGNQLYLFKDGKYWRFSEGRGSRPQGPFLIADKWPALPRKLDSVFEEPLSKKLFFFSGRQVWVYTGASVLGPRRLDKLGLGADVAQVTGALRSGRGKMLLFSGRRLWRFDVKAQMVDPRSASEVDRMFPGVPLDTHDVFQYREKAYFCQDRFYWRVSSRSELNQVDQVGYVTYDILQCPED

On to `CCn1c(C)nc2c3nc(Nc4cc(C(N)=O)ccc4OC(C)C)sc3ccc21` [Example 34, 3-(6-Ethyl-7-methyl-6H-imidazo[4′,5′:3,4]benzo[2,1-d]thiazol-2-ylamino)-4-isopropoxy-benzamide.HCl], for which the dissociation constant (Kd) in assay [1] turned out to be 4 µM; in assay [2], 0.14 µM; in assay [4], 0.12 µM. For the same molecule, in assay [3], the half-inhibitory concentration (IC50) stood at 0.11 µM.
The corresponding values for `CCn1c(C)nc2ccc3sc(Nc4cc(C(N)=O)ccc4OC(C)C)nc3c21` [Example 35, 3-(8-Ethyl-7-methyl-8H-imidazo[4′,5′:3,4]benzo[2,1-d]thiazol-2-ylamino)-4-isopropoxy-benzamide.HCl] are 0.43 µM, 0.15 µM, 0.055 µM and 0.053 µM.
The corresponding values for `CCCn1c(C)nc2c3nc(Nc4cc(C(N)=O)ccc4OC(C)C)sc3ccc21` [Example 36, 4-Isopropoxy-3-(7-methyl-6-propyl-6H-imidazo[4′,5′:3,4]benzo[2,1-d]thiazol-2-ylamino)-benzamide.HCl] are 2 µM, 0.71 µM, 0.17 µM and 0.3 µM.
In the same order, the values of `CCOc1ccccc1Nc1nc2c(ccc3c2ncn3C)s1` [Example 37, (2-Ethoxy-phenyl)-(6-methyl-6H-imidazo[4′,5′:3,4]benzo[2,1-d]thiazol-2-yl)-amine.HCl] are 5.9 µM, 0.36 µM, 2.3 µM and 0.31 µM.
As for `Cc1cc2ccc3sc(Nc4cc(C(N)=O)ccc4OC(C)C)nc3c2o1` [Example 38, 4-Isopropoxy-3-(7-methyl-8-oxa-3-thia-1-aza-as-indacen-2-ylamino)-benzamide.HCl], the Kd in assay [1] was found to be 1.4 µM; in assay [2], 0.95 µM; in assay [4], 1 µM. In assay [3], this molecule returned an IC50 of 1.5 µM.
In the same order, the values of `COc1ccc(C(N)=O)cc1Nc1nc2c(ccc3c2ncn3C)s1` [Example 39, 4-Methoxy-3-(6-methyl-6H-imidazo[4′,5′:3,4]benzo[2,1-d]thiazol-2-ylamino)-benzamide.HCl] are 1.5 µM, 0.052 µM, 0.44 µM and 0.094 µM.
In the same order, the values of `COc1ccc(Cl)cc1Nc1nc2c(ccc3c2ncn3C)s1` [Example 40, (5-Chloro-2-methoxy-phenyl)-(6-methyl-6H-imidazo[4′,5′:3,4]benzo[2,1-d]thiazol-2-yl)-amine.HCl] are 1.6 µM, 0.1 µM, 0.83 µM and 0.17 µM.
In the same order, the values of `COc1ccc(C)cc1Nc1nc2c(ccc3c2ncn3C)s1` [Example 41, (2-Methoxy-5-methyl-phenyl)-(6-methyl-6H-imidazo[4′,5′:3,4]benzo[2,1-d]thiazol-2-yl)-amine.HCl] are 7.7 µM, 0.9 µM, 4.2 µM and 0.72 µM.
Take `COc1ccc(OC)c(Nc2nc3c(ccc4c3ncn4C)s2)c1` [Example 42, (2,5-Dimethoxy-phenyl)-(6-methyl-6H-imidazo[4′,5′:3,4]-benzo[2,1-d]thiazol-2-yl)-amine.HCl]: the dissociation constant (Kd) in assay [1] was determined as 3.4 µM; in assay [2], 0.37 µM; in assay [4], 1.9 µM. The concentration for half-maximal inhibition (IC50) in assay [3] is 0.35 µM.
The corresponding values for `Cn1cnc2c3nc(Nc4ccccc4OCC(F)(F)F)sc3ccc21` [Example 43, (6-Methyl-6H-imidazo[4′,5′:3,4]-benzo[2,1-d]thiazol-2-yl)-[2-(2,2,2-trifluoro-ethoxy)-phenyl]-amine.HCl] are more than 95 µM, 2.8 µM, 17 µM and 2.5 µM.
The corresponding values for `COc1c(Nc2nc3c(ccc4c3ncn4C)s2)cc(C(N)=O)c(F)c1F` [Example 44, 2,3-Difluoro-4-methoxy-5-(6-methyl-6H-imidazo[4′,5′:3,4]-benzo[2,1-d]thiazol-2-ylamino)-benzamide.HCl] are 9.9 µM, 6.2 µM, 25 µM and 3.8 µM.
In the same order, the values of `COc1ccc(S(C)(=O)=O)cc1Nc1nc2c(ccc3c2ncn3C)s1` [Example 52, (5-Methanesulfonyl-2-methoxy-phenyl)-(6-methyl-6H-imidazo[4′,5′:3,4]benzo[2,1-d]thiazol-2-yl)-amine.HCl] are 2.2 µM, 0.6 µM, 1.4 µM and 0.16 µM.
`COc1ccc(S(N)(=O)=O)cc1Nc1nc2c(ccc3c2ncn3C)s1` [Example 54, 4-Methoxy-3-(6-methyl-6H-imidazo[4′,5′:3,4]benzo[2,1-d]thiazol-2-ylamino)-benzenesulfonamide.HCl]: the equilibrium dissociation constant (Kd) in assay [1] is 11 µM; in assay [2], 1.1 µM; in assay [4], 1.6 µM. For the same molecule, inhibition in assay [3] was half-maximal at 0.24 µM (IC50).
The corresponding values for `COc1ccc(S(=O)(=O)N(C)C)cc1Nc1nc2c(ccc3c2ncn3C)s1` [Example 55, 4-Methoxy-N,N-dimethyl-3-(6-methyl-6H-imidazo[4′,5′:3,4]benzo[2,1-d]thiazol-2-ylamino)-benzenesulfonamide.HCl] are 2.1 µM, 2.2 µM, 6.7 µM and 0.53 µM.
In the same order, the values of `COc1cc(C)c(C(N)=O)cc1Nc1nc2c(ccc3c2ncn3C)s1` [Example 56, 4-Methoxy-2-methyl-5-(6-methyl-6H-imidazo[4′,5′:3,4]benzo[2,1-d]thiazol-2-ylamino)-benzamide.HCl] are 9.8 µM, 3.3 µM, 1 µM and 1.1 µM.

Source of the values: patent publication US20120129811A1, “TRICYCLIC INHIBITORS OF PRO-MATRIX METALLOPROTEINASE ACTIVATION” (priority 2010, published 2012).
